Measured values as given in patent US20140322360A1, “METHOD AND DEVICE FOR ATTRACTING BLOOD-SUCKING ARTHROPODS” (BIOGENTS AG, priority 2011, published 2014).

Tested on: female mosquitoes
Assay: Y-olfactometer test of attractiveness (activation and orientation of mosquitoes)
Assay type: in vivo
Settings: A0, B0, C0 together, regardless of the CO2 concentration used
Source text: Olfactometer tests are particularly useful during product development. They are used to filter out the most promising candidate substances from a number of interesting attractants or repellents quickly and cost-effectively. In particular, the olfactometer 60 has the form of a “Y”. A cage with piercing joyful female mosquitoes is connected to the lower end 62 of the “Y” of the air conditioned tubular system of the olfactometer 60. The two arms 64 and 65 of the “Y” each include the control chamber 70 and test chamber 72. Air L flows through both chambers 70, 72 and is then combined in the base leg 66 of the “Y”. During the phase when the stimulus is given, the test mosquitoes can fly into the direction of movement B into the olfactometer 60 and choose between the test chamber 72 with air containing the stimulus and the control chamber 70 containing clean air. Air L flows through the olfactometer 60 in the direction opposite to the direction of movement B of the mosquitoes, the air L being entrained with the attractant from the test chamber 72. Firstly, the activation or mobilization of the test mosquitoes is determined. This refers to a non-directional fly away of the mosquitoes when a stimulus is given. […] Then the orientation is further determined by counting the number of mosquitoes in the test chamber 72. […]

## O=C=O [CO2]
  directional orientation Y: about 50%
  undirected activation X: about 83%
